Experimental data taken from US20230098646A1, “NEUROMODULATION DEVICES AND RELATED METHODS” (Massachusetts Institute of Technology, priority 2021, published 2023).
Where a SMILES comes first, the peptide text is derived from it. The star is where a group is joined. Cbz = O=C(OCc1ccccc1)*

Key:
C2C12 cells = assay: Extract exposure test (ISO), cell viability by ATP quantitation (CellTiter-Glo); format: cell-based; details: 40 um MG-132, positive control, vs negative control (p<0.05)
Experimental: An extract exposure test following ISO norms was performed to evaluate the toxicity of the neuroprosthesis material. 0.2 gm of material were added to 1 mL of DMEM culture medium and stirred at 37° C. for 24 hours or 7 days to create the extract samples. 100 uL of fetal bovine serum were added to 900 uL aliquots of the samples and used to treat C2C12 cells plated in a 96 well plate in triplicate. A negative control of untreated media and positive control of media containing 40 um MG-132, a small molecule proteasome inhibitor, were also performed. At 24 and 72 hours, cell viability was measured through quantitation of ATP using CellTiter-Glo (Promega) using a Tecan M1000Pro.

[1] = system: lower esophageal sphincter; assay: Glucagon infusion through the neuroprosthesis microfluidic channel into the lower esophageal sphincter, intraluminal manometry; format: in vivo, swine
Experimental: The neuroprosthesis' distal tip was implanted in the lower esophageal sphincter and glucagon was infused through the microfluidic channel. This chemical stimulation yielded relaxation of the sphincter within 10-20 s. […] Muscle tone returned within 1.5 minutes whereupon repeated infusions led to relaxation. Injection of saline produced no measurable effect and served as negative a control.
Following validation of the safety, efficacy, and biocompatibility, the prosthesis was implanted Yorkshire swine (n=2, 94 kg & 70 kg). The optimized electrical stimulation parameters were programmed into the controller. A pump primed the microfluidic channel and injected 5mg/mL glucagon per neurochemical stimulus.
To characterize and validate the neuroprosthesis' ability to sense and create artificial peristalsis, a fluoroscopic pellet study was conducted. Barium sulfate (Bracco E-Z-HD Barium Sulfate for Suspension (98% w/w), Patterson Veterinary) was mixed with a sodium alginate solution (Sigma) in a 50:50 volume by weight ratio. After 10 minutes of sonication at 30 deg C., the suspension was pipetted into a custom silicone mold sized for a triple zero capsule. After 24 hours, these pellets were hydrated with a 2M CaCl2 solution for at least 2 hours and rinsed with PBS for 72 hours. They were then placed in the esophagus using the endoscope. Stimulation and sensing were performed by the neuroprosthesis and the pellet was radiographically visualized using fluoroscopy. Further, intraluminal manometry studies were performed (n=4, swine) to characterize changes in esophageal reflexes and pressures following tool-based tissue manipulation and neuroprosthesis implantation as well as capture artificial peristalsis created by the neuroprosthesis. An intraluminal manometer (Endoflip, Medtronic) was inserted into the middle and lower esophagus using an overtube to profile distensibility, pressure, pattern of motility and minimal diameter of the esophagus. […] Electromyography was recorded from the electrodes during stimulation and rest periods. […]

Row | Compound | cell viability (C2C12 cells) | time to relaxation of the sphincter ([1]; after glucagon infusion through microfluidic channel, distal tip in lower esophageal sphincter) [s] | time until muscle tone returned ([1]; after glucagon infusion, repeated infusions again led to relaxation) [min] | relaxation of the LES on glucagon infusion ([1]; microfluidic infusion by the neuroprosthesis, 5mg/mL glucagon per stimulus, tonic LES at rest)
1 | CC(C)C[C@@H](C=O)NC(=O)[C@H](CC(C)C)NC(=O)[C@H](CC(C)C)NC(=O)OCc1ccccc1 [MG-132] (Cbz-Leu-Leu-Leu-aldehyde) | significantly decreased cell viability | – | – | –
2 | glucagon | – | 10 to 20 | ≤ 1.5 | yielded relaxation of this LES
